# Data: patent publication US20180085340A1, “METHOD FOR TREATING MELANOMA” (TCI CO., LTD, priority 2016, published 2018)
# System: Homo sapiens skin malignant melanoma cells (A375.S2 cell line)
# Experiment: MTT assay of survival of malignant melanoma cells
# Format: cell-based
# Conditions: for Relative survival rate (%) / Average of absorbance values (n = 4): 48 hours; for Relative survival rate (%): relative to control group, n = 4; for Average of absorbance values (n = 4): OD at 570 nm, MTT
# Procedure: Homo sapiens skin malignant melanoma cells (A375.S2 cell line) were cultivated for 24 hours, and then divided into four groups (5×10^3 cells for each group). The four groups were respectively cultivated in the following medium for 48 hours: • 1. Control group: a MEM-NEAA medium contains 1 mmol of sodium pyruvate and 10% of FBS. • 2. High-dose group: a MEM-NEAA medium contains 1 mmol of sodium pyruvate, 10% of FBS and 1 mg/ml of the compound of formula (I) obtained from Example 1. • 3. Middle-dose group: a MEM-NEAA medium contains 1 mmol of sodium pyruvate, 10% of FBS and 0.5 mg/ml of the compound of formula (I) obtained from Example 1. • 4. Low-dose group: a MEM-NEAA medium contains 1 mmol of sodium pyruvate, 10% of FBS and 0.25 mg/ml of the compound of formula (I) obtained from Example 1.
# Thereafter, the absorbance value (optical density, OD) at 570 nm of each group was determined by the MTT assay.
# Steps of the above cultivation and MTT assay were repeated four times. The absorbance values were averaged in each group, and the result of the control group was served as a basis for calculating the relative survival rate of other groups.
smiles,measurement,setting,value
"COc1cc([C@@H]2Oc3c(OC)cc(/C=C/C(=O)NCCc4ccc(O)cc4)cc3[C@@H]2C(=O)NCCc2ccc(O)cc2)ccc1O [compound of formula (I), N-trans-grossaminde]",Relative survival rate (%),0.25 mg/ml compound in medium,93.67%
same,Relative survival rate (%),0.5 mg/ml compound in medium,22.14%
same,Relative survival rate (%),1 mg/ml compound in medium,12.24%
same,Average of absorbance values (n = 4),0.25 mg/ml compound,0.733
same,Average of absorbance values (n = 4),0.5 mg/ml compound,0.1732
same,Average of absorbance values (n = 4),1 mg/ml compound,0.09575
same,induction of apoptosis of malignant melanoma cells,conclusion drawn from MTT survival rates,effectively induce apoptosis
